Assay results as given in patent US20210220420A1, “BOTANICAL COMPOSITIONS OF SALVIA O[…] ACTIVITY IN EXTENDING CHR[…] AND METHODS OF USE” (priority 2016, published 2021).

Columns and labels:
Yeast = conditions: cited from earlier work
[1] = test system: C. elegans strain with a pharyngeal GFP tag and a bus-5 mutation; assay: C. elegans chronological lifespan assay versus small molecule AChE inhibitors (Example 4); type: in vivo; conditions: 10 mg/ml; for maximum improvement in survival: at day 13 (N350), day 12 (N355, N314), day 9 (N354); for improvement in mean life span: vs control
Description: The samples were prepared as a DMSO-based 10 mg/ml stock, aliquoted when necessary and a serial dilution of the stock solution was performed for N92-4. The stock solutions were stored at −20° C.
The assay was carried out using the standard C. elegans strain with a pharyngeal GFP tag and a bus-5 mutation. The GFP tag enables images of the worms to be captured using fluorescence microscopy. […] The worms were raised in the presence of a treatment or control on 12 well NGM agar plates, and were maintained at 20° C. with sufficient food (Escherichia coli strain OP-50).
A proprietary data analysis software package was used to analyse the effects of different active ingredients on aspects of worm ageing. The package was developed using a MATLAB image analysis algorithm which was adapted to recognise and count worms based on their fluorescence intensity above background fluorescence. A living worm is distinguished from a dead worm based on the degree of movement between two consecutive images, which enables the number of living and cumulative number of dead worms to be tracked throughout the experiment. […] A selection of images was manually checked to ensure the software had correctly identified the number of worms.
The statistical analysis output of OASIS provides Log-Rank and Fishers Exact Test results. The Log-Rank result is a non-parametric test which compares two survival functions for the overall lifespan assay, providing a reliable p-value summarising the whole experiment. The Fishers Exact Test calculates the significance of survival function comparisons at multiple specific time points throughout the experiment, rather than for the overall lifespan

Compound	effect on lifespan (Yeast)	Restricted mean lifespan [1] [days]	maximum improvement in lifespan [1]	maximum improvement in survival [1]	improvement in mean life span [1]
Oc1ccc(C=Cc2cc(O)cc(O)c2)cc1 [Resveratrol]	able to increase lifespan in yeast				
COc1ccc2c3c1O[C@H]1C[C@@H](O)C=C[C@@]31CCN(C)C2 [N354, Galantamine]		14.05	+15.9%	up to +11.6%	+8%
CCN(C)C(=O)Oc1cccc([C@H](C)N(C)C)c1 [N355, Rivastigmine]		14.04	+15.6%	up to +13.3%	+7.9%
